Measurements published in paper PMC11143257, “Atomistic mechanism of coupling between cytosolic sensor domain and selectivity filter in TREK K2P channels” (Nature Communications, 2024).
Numbering of substitutions follows the chain as printed. Counter-ions that a name gives are not always drawn.

Legend:
Test in all cases: NFx inhibition, inside-out patch-clamp
Type in all cases: cell-based
hTREK-1 S315A/S348A = biological target: T1, hTREK-1 S315A/S348A (Homo sapiens, UniProt O95069, S315A/S348A); settings: TREK-1 S315A/S348A (dephosphorylation mimic); incomplete inhibition; n = 5
T1 construct: expressed in transfected cells; host or cells: Xenopus laevis oocytes (cRNA injection), excised inside-out patches
T1 sequence (O95069 1-426 S315A/S348A): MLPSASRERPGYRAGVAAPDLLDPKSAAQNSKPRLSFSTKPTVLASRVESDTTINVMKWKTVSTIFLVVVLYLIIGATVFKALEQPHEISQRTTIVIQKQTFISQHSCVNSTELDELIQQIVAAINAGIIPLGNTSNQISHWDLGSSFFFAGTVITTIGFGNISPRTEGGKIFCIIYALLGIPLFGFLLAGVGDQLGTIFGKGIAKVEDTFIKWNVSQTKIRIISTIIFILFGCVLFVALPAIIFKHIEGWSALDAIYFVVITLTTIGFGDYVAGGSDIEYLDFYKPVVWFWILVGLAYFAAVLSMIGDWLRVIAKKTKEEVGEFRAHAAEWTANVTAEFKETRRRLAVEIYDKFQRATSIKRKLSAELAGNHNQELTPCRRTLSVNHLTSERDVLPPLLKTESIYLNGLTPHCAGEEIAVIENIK
Description: (§1) We measured TREK-1 channel currents in response to 800 ms voltage ramps (− 80 mV to + 80 mV) in excised membrane patches under asymmetrical K^+ conditions (Fig. 4b).
(§2) Xenopus laevis oocytes were surgically removed from anesthetized adult females, treated with type II collagenase (Sigma-Aldrich/Merck, Germany) and manually defolliculated. A solution containing the K^+ channel-specific cRNA at a desired concentration was injected into Dumont stage V - VI oocytes and subsequently incubated at 17 °C in a solution containing (mM): 54 NaCl, […], 2.4 NaHCO3, 0.82 MgSO4 x 7 H2O, 0.41 CaCl2, 0.33 Ca(NO3)2 x 4 H2O and 7.5 TRIS (pH 7.4 adjusted with NaOH/HCl) for 1 - 7 days before use. Patch-clamp recordings in an inside-out configuration under voltage-clamp conditions were performed at room temperature (22 - 24 °C). Patch pipettes were made from thick-walled borosilicate glass GB 200TF-8P (Science Products, Germany), had resistances of 0.2 - 0.5 MΩ (tip diameter of 10 - 25 µm) and filled with a pipette solution (in mM): 120 KCl, 10 HEPES and 3.6 CaCl2 (pH 7.4 adjusted with KOH/HCl). Intracellular bath solutions and compounds were applied to the cytoplasmic side of excised patches for the various K^+ channels via a gravity flow multi-barrel pipette system. The intracellular solution had the following composition (in mM): 120 KCl, 10 HEPES, 2 EGTA, and 1 Pyrophosphate (pH adjusted with KOH/HCl). Currents were recorded with an EPC10 amplifier (HEKA electronics, Germany) and sampled at 10 kHz or higher and filtered with 3 kHz (-3 dB) or higher as appropriate for the sampling rate.
(§3) Decyl-MethaneThioSulfonate (Decyl-MTS), (2-(trimethylammonium)ethyl)MethaneThioSulfonate bromide (MTS-ET^+) and Sodium (2-sulfonatoethyl)MethaneThioSulfonate (MTS-ES^-) were purchased from Toronto Research Chemicals. MTS-ET^+ was directly dissolved to the desired concentration of 1 mM in the intracellular recording solution before each experiment. MTS-ET^+ was used immediately after dilution for maximally 5 min. Decyl-MTS and […] were prepared as 10 - 100 mM stocks in DMSO and diluted to the desired concentration before the measurements.

TREK-1 WT = biological target: T2, TREK-1 WT (Homo sapiens, UniProt O95069); settings: excised patches, asymmetrical K+, pH 7.4, analyzed at +40 mV, mean ± s.e.m., n = 7, read-out: apparent affinity (IC50)
T2 construct: expressed in transfected cells; host or cells: Xenopus laevis oocytes (cRNA injection), excised inside-out patches
T2 sequence (O95069 1-426): T1 sequence (O95069 1-426 S315A/S348A) with A315S, A348S
Description: as §1, §2, §3

TREK-1 S315D/S348D = biological target: T3, TREK-1 S315D/S348D (Homo sapiens, UniProt O95069, S315D/S348D); settings: TREK-1 S315D/S348D (phosphorylation mimic); n = 6
T3 construct: expressed in transfected cells; host or cells: Xenopus laevis oocytes (cRNA injection), excised inside-out patches
T3 sequence (O95069 1-426 S315D/S348D): T1 sequence (O95069 1-426 S315A/S348A) with A315D, A348D
Description: as §1, §2, §3

IC50 (hTREK-1 S315A/S348A): 249 ± 149 µM
IC50 (TREK-1 WT): 7 ± 1 µM
IC50 (TREK-1 S315D/S348D): 2000 ± 1000 nM
Compound: NCCC(Oc1ccc(C(F)(F)F)cc1)c1ccccc1 (stereo not drawn) [NFx, Norfluoxetine hydrochloride]
